Where two headings read alike, the source gives them in different places.
What was measured:
WM983B melanoma cells = assay: Cell viability assay (EZQuant), WM983B; assay type: cell-based; settings: Homo sapiens, AP alone, 72 h
Experimental: (§2) Cell proliferation assays were conducted in 96-well plates at 25-30% starting confluence to determine the effect of exposure to increasing concentrations of PLX4720 or AP with or without 1 mM DFMO for 72 hours. Cell viability was assessed using the EZQuant™ Cell Quantifying Kit (Alstem) in which WST-8 is reduced by the metabolic activity of live cells to formazan dye. […] The 72 hour IC50 values for AP were calculated using non-linear regression (sigmoidal dose response) of the plot of percentage inhibition versus the log of inhibitor concentration in GraphPad Prism (v5; GraphPad Software, Inc., La Jolla, Calif.).

[1] = system: BRAF^V600E melanoma cells; assay: Cell viability, panel of BRAF V600E human melanoma cell lines; assay type: cell-based; settings: summary of Table 1, BRAF V600E lines, read-out: IC50 (sensitivity to AP)
Text: (§1) A panel of human melanoma cell lines with different BRAF mutational status were screened for their sensitivity to the BRAF inhibitor PLX4720. […] The IC50 value is defined as the concentration of the compound (PLX4720) required to inhibit 50% cell viability compared to an untreated control. This approach allowed for the ranking of the relative sensitivity of each cell line to the PLX4720 BRAF inhibitor. Thus, the sensitivity of these BRAF^V600E melanoma cells to BRAF inhibition with PLX4720 reflected their functional dependence on mutant BRAF signaling to sustain their proliferation and viability. Likewise, it was tested whether BRAF^V600E cells were more sensitive compared to BRAF^WT melanoma cells to increasing concentrations of the cytotoxic polyamine transport ligand, AP.

WM3743 melanoma cells = assay: Cell viability assay (EZQuant), WM3743; assay type: cell-based; settings: Homo sapiens; AP alone, 72 h, WM3743, BRAF WT
Experimental: as §2

[2] = system: BRAF^V600E YUMM1.7 melanoma cells; assay: Cell viability assay (EZQuant), YUMM1.7; assay type: cell-based, murine; settings: FIGS. 9A, 9B, 72 h
Experimental: FIG. 9A: Murine BRAF^V600E YUMM1.7 melanoma cells and BRAF^WT B16F10 melanoma cells were treated with increasing doses of AP. After 72 hours of culture, cell survival was determined via EZQuant™ Cell Quantifying assay. IC50 values were calculated by GraphPad Prism 6. FIG. 9B: Murine BRAF^V600E YUMM1.7 melanoma cells and BRAF^WT B16F10 melanoma cells were treated with increasing doses of AP±1 mM DFMO or with PLX4720. After 72 hours of culture, cell survival was determined via EZQuant™ Cell Quantifying assay. IC50 values were calculated by GraphPad Prism 6. […] Cells were washed with cold PBS containing 50 μM spermidine, and cell lysates were assayed for CPM ^3H-spermidine per mg protein by scintillation counting.

WM88 melanoma cells = assay: Cell viability assay (EZQuant), WM88; assay type: cell-based; settings: Homo sapiens; AP alone, 72 h, WM88, BRAF V600E
Experimental: as §2

1205Lu melanoma cells = assay: Cell viability assay (EZQuant), 1205Lu; assay type: cell-based; settings: Homo sapiens, AP alone, 72 h, BRAF V600E
Experimental: as §2

B16F10 melanoma tumors = assay: B16F10 melanoma tumor model (Example 3); assay type: in vivo, C57Bl/6 mice
Experimental: C57Bl/6 mice were injected s.c. with 1.5×10^5 B16F10 melanoma cells. B16F10 melanoma cells are a poorly immunogenic, highly metastatic, and highly aggressive cancer cell line. When tumors were 40-80 mm^3 in size, AP (Formula (II)) treatment (i.p., 2 mg/kg every other day) was initiated. Some mice were also administered 0.25% DFMO (w/v) in the drinking water. Tumors were measured with calipers to determine tumor volume over 14 days of treatment (FIG. 12A). Splenocytes from mice treated with vehicle, DFMO, AP, or AP+DFMO were analyzed by flow cytometry for F4/80+CD206^+ M2 macrophages (FIG. 12B). Splenocytes were treated for 4 hours at 37° C. with ionomycin (500 ng/ml) and PMA (50 ng/ml) to stimulate T cells to produce IFNγ in the presence of Brefeldin A to block cytokine secretion. Cells were stained with anti-CD4 antibody in the presence of Brefeldin A, fixed, permeabilized and intracellularly stained with an anti-IFNγ antibody and analyzed by flow cytometry (FIG. 12C).

WM989 melanoma cells = assay: Cell viability assay (EZQuant), WM989; assay type: cell-based; settings: Homo sapiens; AP alone, 72 h, WM989, BRAF V600E
Experimental: as §2

B16F10-pBABE cells = assay: Cell viability assay, B16F10-pBABE; settings: Mus musculus, read-out: IC50 (cytotoxicity)
Experimental: Cell proliferation assays were conducted in 96-well plates at 25-30% starting confluence to determine the effect of exposure to increasing concentrations of PLX4720 or AP with or without 1 mM DFMO for 72 hours. Cell viability was assessed using the EZQuant™ Cell Quantifying Kit (Alstem) in which WST-8 is reduced by the metabolic activity of live cells to formazan dye. For spheroids treated with PLX4720 and/or AP, viability of the spheroid cells was estimated by quantification of the ATP present using a CellTiter-Glo Luminescent Cell Viability Assay (Promega Co., Madison, Wis.). The 72 hour IC50 values for AP were calculated using non-linear regression (sigmoidal dose response) of the plot of percentage inhibition versus the log of inhibitor concentration in GraphPad Prism (v5; GraphPad Software, Inc., La Jolla, Calif.).

WM3734 melanoma cells = assay: Cell viability assay (EZQuant), WM3734; assay type: cell-based; settings: Homo sapiens; AP alone, 72 h, WM3734, BRAF V600E
Experimental: as §2

BRAF^WT melanoma cells = assay: Cell viability, panel of BRAF WT human melanoma cell lines; assay type: cell-based; settings: summary of Table 1, BRAF WT lines, read-out: IC50 (sensitivity to AP)
Text: as §1

WM3451 melanoma cells = assay: Cell viability assay (EZQuant), WM3451; assay type: cell-based; settings: Homo sapiens; AP alone, 72 h, WM3451, BRAF WT
Experimental: as §2

SMILES: CNCNCNCc1ccc(CNCNCNC)c2ccccc12 [AP]
- IC50 (WM983B melanoma cells; BRAF V600E, read-out: IC50 (μM AP)): 2.6 µM
- IC50 (WM983B melanoma cells; FIG. 8C, read-out: IC50): 2.3 µM
- IC50 [1]: < 2.5 µM
- IC50 (WM3743 melanoma cells): 8.9 µM
- sensitivity to AP (IC50 compared to BRAF WT B16F10 cells) [2]: significantly more sensitive
- IC50 (WM88 melanoma cells): 0.8 µM
- IC50 (1205Lu melanoma cells): 0.7 µM
- tumor growth (B16F10 melanoma tumors; FIG. 12A, AP alone, i.p. 2 mg/kg every other day, 14 days): inhibits tumor growth
- CD206+ F4/80+ macrophages (splenocytes) (B16F10 melanoma tumors; FIG. 12B, AP alone): dramatically decreases
- IFN-gamma-secreting T cells (B16F10 melanoma tumors; FIG. 12C, splenocytes stimulated with ionomycin and PMA): increasing
- IC50 (WM989 melanoma cells): 1.2 µM
- IC50 (B16F10-pBABE cells): 36.4 µM
- IC50 (WM3734 melanoma cells): 2.2 µM
- IC50 (BRAF^WT melanoma cells): > 4 µM
- IC50 (WM3451 melanoma cells): 9 µM

Reference: patent publication US20190365673A1, “Immunomodulatory Compounds” (Lankenau Institute for Medical Research, priority 2016, published 2019)
